Test results reported in ChEMBL document CHEMBL1133329, “N-acyl phenylalanine analogues as potent small molecule VLA-4 antagonists” (Bioorg Med Chem Lett, 2000).

What was measured:
Type in all cases: cell-based
Integrin alpha-4/beta-1 [1] = target: T1, Integrin alpha-4/beta-1 (Homo sapiens, UniProt P05556+P13612); assay: Antagonistic activity against VLA-4 (derived from ramos cells) binding to recombinant human VCAM
Integrin alpha-4/beta-1 [2] = target: T1, Integrin alpha-4/beta-1; assay: Inhibition of recombinant human VCAM binding to VLA-4 of Ramos cells at 10 uM
Integrin alpha-4/beta-1 [3] = target: T1, Integrin alpha-4/beta-1; assay: Inhibition of CS-1 peptide binding to VLA-4 expressed in Ramos cells

T1 sequence (P05556 whole entry): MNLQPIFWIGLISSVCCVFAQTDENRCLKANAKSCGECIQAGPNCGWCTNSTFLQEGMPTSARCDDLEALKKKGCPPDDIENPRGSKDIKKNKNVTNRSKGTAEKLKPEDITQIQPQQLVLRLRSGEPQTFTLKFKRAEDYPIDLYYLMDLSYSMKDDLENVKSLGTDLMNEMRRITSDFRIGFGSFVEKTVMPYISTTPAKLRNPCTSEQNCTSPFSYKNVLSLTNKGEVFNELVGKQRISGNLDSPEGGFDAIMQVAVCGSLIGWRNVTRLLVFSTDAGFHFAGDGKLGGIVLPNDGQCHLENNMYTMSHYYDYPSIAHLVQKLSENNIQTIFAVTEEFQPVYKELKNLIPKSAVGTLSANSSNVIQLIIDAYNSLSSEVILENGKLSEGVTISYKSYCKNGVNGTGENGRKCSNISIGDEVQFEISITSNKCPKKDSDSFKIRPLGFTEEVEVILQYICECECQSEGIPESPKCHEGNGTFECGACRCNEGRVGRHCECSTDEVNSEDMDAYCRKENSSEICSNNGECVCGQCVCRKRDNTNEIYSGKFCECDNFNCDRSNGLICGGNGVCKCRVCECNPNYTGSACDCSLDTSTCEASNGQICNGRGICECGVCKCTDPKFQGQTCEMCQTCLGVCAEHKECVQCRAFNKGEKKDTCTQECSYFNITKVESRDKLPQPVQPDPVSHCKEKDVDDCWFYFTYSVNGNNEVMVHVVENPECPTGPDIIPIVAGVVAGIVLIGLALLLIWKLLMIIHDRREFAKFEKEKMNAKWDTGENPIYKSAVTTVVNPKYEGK
T1 sequence (P13612 whole entry): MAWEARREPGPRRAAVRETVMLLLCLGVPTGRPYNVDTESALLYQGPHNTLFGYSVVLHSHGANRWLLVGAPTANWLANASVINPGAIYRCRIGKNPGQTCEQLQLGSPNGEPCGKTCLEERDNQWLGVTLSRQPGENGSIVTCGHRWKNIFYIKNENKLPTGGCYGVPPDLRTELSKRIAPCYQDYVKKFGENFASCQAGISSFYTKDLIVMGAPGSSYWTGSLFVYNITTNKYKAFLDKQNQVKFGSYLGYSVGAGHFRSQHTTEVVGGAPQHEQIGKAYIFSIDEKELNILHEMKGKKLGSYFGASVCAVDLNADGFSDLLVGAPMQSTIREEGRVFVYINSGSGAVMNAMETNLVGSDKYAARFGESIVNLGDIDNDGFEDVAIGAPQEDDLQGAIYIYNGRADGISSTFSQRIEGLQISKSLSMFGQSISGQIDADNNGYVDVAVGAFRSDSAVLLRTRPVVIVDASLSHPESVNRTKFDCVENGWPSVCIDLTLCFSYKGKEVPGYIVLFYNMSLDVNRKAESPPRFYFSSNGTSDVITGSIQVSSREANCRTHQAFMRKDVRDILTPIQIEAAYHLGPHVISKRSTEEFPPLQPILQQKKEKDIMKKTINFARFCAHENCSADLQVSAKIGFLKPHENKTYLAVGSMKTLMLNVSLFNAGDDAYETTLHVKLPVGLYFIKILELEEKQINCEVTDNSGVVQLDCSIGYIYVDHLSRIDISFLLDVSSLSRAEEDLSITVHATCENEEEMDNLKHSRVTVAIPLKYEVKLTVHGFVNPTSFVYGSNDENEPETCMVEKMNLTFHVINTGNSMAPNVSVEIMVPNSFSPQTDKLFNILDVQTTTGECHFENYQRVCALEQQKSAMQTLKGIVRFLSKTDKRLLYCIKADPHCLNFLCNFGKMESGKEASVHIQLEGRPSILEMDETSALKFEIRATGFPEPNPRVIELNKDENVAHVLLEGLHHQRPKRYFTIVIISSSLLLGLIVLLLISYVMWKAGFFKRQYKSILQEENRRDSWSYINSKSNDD

Row | SMILES | IC50 (Integrin alpha-4/beta-1 [1]) [nM] | inhibition (Integrin alpha-4/beta-1 [2]) [%] | IC50 (Integrin alpha-4/beta-1 [3]) [µM]
1 | CCCCCOc1ccc(C[C@H](NC(=O)[C@@H]2CCC(=O)N2Cc2ccccc2)C(=O)O)cc1 | 46 | 97 | –
2 | CC1(C(=O)N[C@@H](Cc2ccc(C#CCCCC(=O)O)cc2)C(=O)O)CC1(Cl)Cl (stereo not given in full) | 187 | 80 | –
3 | CC(C)(C)OC(=O)N1CCC[C@H](CC(=O)N[C@@H](Cc2ccc(C#CCCCC(=O)O)cc2)C(=O)O)C1 | 640 | – | –
4 | CCCCCOc1ccc(C[C@H](NC(=O)C2CC(=O)N(C)C2c2cccnc2)C(=O)O)cc1 (stereo in doubt; 3) [listing 1 of 2 here] | – | 81 | –
5 | CCCCCCc1ccc(C[C@H](NC(=O)Cc2cccc(NC(=N)N)c2)C(=O)O)cc1 | 7000 | – | –
6 | O=C(O)CCCC#Cc1ccc(C[C@H](NC(=O)[C@@H]2CCC(=O)N2Cc2ccccc2)C(=O)O)cc1 | 20 | – | –
7 | CCCCCOc1ccc(C[C@H](NC(=O)c2c3ccccc3nc3ccccc23)C(=O)O)cc1 | 590 | 92 | –
8 | CCCCCOc1ccc(C[C@H](NC(=O)C2CC(=O)N(C)C2c2cccnc2)C(=O)O)cc1 (stereo in doubt; 22) [listing 1 of 2 here] | – | 90 | –
9 | COC(=O)CCCC#Cc1ccc(C[C@H](NC(=O)c2ccc(S(N)(=O)=O)cc2)C(=O)O)cc1 | 317 | 94 | –

Next, values leading:

Row | IC50 (Integrin alpha-4/beta-1 [1]) [nM] | inhibition (Integrin alpha-4/beta-1 [2]) [%] | IC50 (Integrin alpha-4/beta-1 [3]) [µM] | SMILES
10 | 245 | – | – | CCCCCOc1ccc(C[C@H](NC(=O)c2c(C)cc(C)cc2C)C(=O)O)cc1
11 | 60 | – | – | CCCCCOc1ccc(C[C@H](NC(=O)/C(=N/OC)c2csc(N)n2)C(=O)O)cc1
12 | 210 | – | – | CCCCCOc1ccc(C[C@H](NC(=O)C2(C)CC2(Cl)Cl)C(=O)O)cc1 (stereo not given in full)
13 | 135 | 99 | – | CO/N=C(\C(=O)N[C@@H](Cc1ccc(C#CCCCC(=O)OC)cc1)C(=O)O)c1csc(N)n1
14 | 4500 | – | – | CCCCCOc1ccc(C[C@H](NC(=O)Cc2cccc(N)c2)C(=O)O)cc1
15 | 112 | – | 4.2 | CCCCCOc1ccc(C[C@H](NC(=O)[C@@H]2CSCN2C(C)=O)C(=O)O)cc1
16 | 3800 | 87 | – | CCCCCOc1ccc(C[C@H](NC(=O)c2cccnc2)C(=O)O)cc1
17 | 1700 | – | – | CCCCCOc1ccc(C[C@H](NC(=O)C2CC(=O)N(C)C2c2cccnc2)C(=O)O)cc1 (stereo in doubt; 3) [listing 2 of 2 here]
18 | 870 | – | – | CCCCCOc1ccc(C[C@H](NC(=O)C2CC(=O)N(C)C2c2cccnc2)C(=O)O)cc1 (stereo in doubt; 22) [listing 2 of 2 here]
